Values after ≈ are worked out from the molar mass of the structure shown.

One data set relates to A. baumannii ATCC 19606. The experiment in a line: Inner membrane permeabilization, propidium iodide (PI). The following applies: AB. Type of data set: cell-based, Acinetobacter baumannii. The protocol:
Membrane Permeabilization Assay
The inner membrane and outer membrane permeabilization was determined by propidium iodide (PI) and 1-N-Phenylnaphthylamine (NPN), respectively. MRSA (ATCC 700787) and A. baumannii (ATCC 19606) at mid-log phase were harvested, washed and resuspended in a solution containing 5 mM glucose and 5 mM HEPES at pH 7.2. For the inner membrane permeabilization, 150 μL cell suspension and 50 μL PI (10 μM) were added together and preincubated for 30 minutes or 60 minutes for MRSA or A. baumannii, respectively. For outer membrane permeabilization activity, 150 μL cell suspension and 50 μL NPN (10 μM) were added together and preincubated for 60 minutes. The change of fluorescence intensity was recorded for 8 minutes at 2 minute intervals with excitation and emission wavelength set at 535 nm and 617 nm, respectively for PI and with excitation and emission wavelength set at 350 nm of 420 nm, respectively, for NPN. When 5 μL of a given test compound was added in the solution, the fluorescence intensity was recorded for another 12 minutes.

The test system of data set [1] is MRSA ATCC 700787. The experiment in a line: Thin-section TEM, cell wall morphology. Type of data set: cell-based, Staphylococcus aureus. How it is done:
Thin-Section Transmission Electron Microscopy (TEM)
An overnight cultured MRSA ATCC 700787, VRE ATCC 700221 or A. baumannii ATCC 19606 was individually sub-cultured into a fresh medium. Bacteria at the exponential phase were treated with a given test compound at a concentration of 4×MIC for 1-4 hour at 37° C. and followed by wash and resuspension in PBS. Bacteria cells for the TEM analysis were prepared as follows: Cells were fixed with 2.5% glutaraldehyde for 30 minutes. After the fixation, cells were washed twice with PBS and fixed with 1% osmium tetraoxide for another 30 minutes. All the buffer was removed with distilled water. The cells were then stained with 1% uranyl acetate and dehydrated with a graded ethanol solution. Cells were embedded in resin. Finally, each sample was cut into thin slices of approximately 90 nm with a glass knife and stained with uranyl acetate. The images of bacterial morphological were recorded.
The cell wall/membrane apparently is the targets, while the extent of damage depends on what compound imposes on the strain. […] Cell wall thickening has been a common phenotype in clinical MRSA isolates, which may well be a phenotypic determinant for VRSA. The systemic cell-wall damage may account for the cell-wall biosynthesis crippled all over the cell surface in cell-wall thickening strains, thus leading cells to lysis as a result of the osmotic pressure of cytoplasm.

For a further data set, the system named is E. faecalis ATCC 29302. The data set is described as follows: MIC, broth microdilution. It is filed as cell-based. To be noted: EF ATCC 29302. In outline: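 MIC is the test-compound concentration showing no visible growth after plates sit 18-24 h at 37° C, with growth and no-growth control wells checked. Inoculum came from freshly grown broth at 0.5 McFarland, brought to about 1×10^8 CFU mL^−1.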
(In general: Dilution methods test growth across graded concentrations, often in twofold steps.)

A further data set deals with HEK293T cells. The experiment in a line: Alamar Blue cell viability assay. It is filed as cell-based, human. The following applies: up to 100 μgmL^−1; 2 and 24 h. The protocol:
The Alamar Blue (AB) assay, which includes a redox indicator that changes color or emits fluorescence in response to a metabolic activity, was used to assess in vitro mammalian cell cytotoxicity (human embryonic kidney cells (HEK293T)) upon an antibiotic treatment. 2×10^5 cellsmL^−1 were allowed to adhere on 96-well plates overnight at 37° C. in a humidified incubator (5% CO2 atmosphere). Tested compounds were dissolved in 50% DMSO to make 1 mgmL^−1 of a stock solution. Cells were separately aliquoted with 5 μL of a test compound (final concentration: 100 μgmL^−1) and incubated. PBS and 50% DMSO, which was used to dissolve compounds, served as a control. Cell viability was triplicated and assessed at 2 and 24 hour time points for each test compound, on which the measurements followed the manufacturer protocol.
For orientation: Alamar Blue is a resazurin reagent that responds to reducing activity.

The subject of data set [2] is MRSA ATCC 700787. The experiment in a line: In vivo efficacy, intraperitoneal MRSA infection. Also on record: species or system mice. To be noted: peritoneal fluid, 24 hours post-inoculation, single dose 20 mgkg^−1 IP. The protocol:
In Vivo Efficacy of r6,N-Acyl-Glc Tei Analogs
Female C57BL/6 mice (6 weeks of age; about 16-19 g, 3-5 mice per group) were intraperitoneally inoculated with 300 μL of MRSA ATCC 700787 suspension (about 10^7 CFUmL^−1). For intranasal A. baumannii (ATCC 19606) inoculation, mice were anesthetized, and inoculated intranasally with about 10^7-10^8 CFUmL^−1 A. baumannii in 50 μL of PBS. Treatments were started 1 hour after the bacterial challenge. The dose administration to mice was set as follows: teicoplanin (1) or r6,C8-Tei analog (14) 20 mgkg^−1 was intraperitoneally injected to MRSA-infected mice; amikacin (15 mgkg^−1), teicoplanin (1) (30 mgkg^−1), kanamycin (30 mgkg^−1) or r1,Me2-r6,guanidino-C8 analog (24) (30 mgkg^−1) was intraperitoneally injected to AB-infected mice. To assess bacteraemia, the test animals were sacrificed to collect 1 mL of peritoneal fluid (PF) for MRSA counting or the lungs were lavaged to collect 0.6 mL bronchoalveolar lavage (BAL) fluid for A. baumannii counting.
For MRSA, mice were inoculated intraperitoneally (IP) with 0.3 mL of MRSA ATCC 700787 suspension (about 10^7 CFUmL^−1). […] For the saline treated control, bacterial count was calculated (about 7.5 log CFUmL^−1, FIG. 4A). […]

Broadly, the MIC is the smallest concentration in the dilution series that meets the test's criterion for growth inhibition. A higher MIC goes with a less susceptible organism. As to `CCCCCCCC(=O)N[C@H]1[C@H](O[C@@H]2c3ccc(c(Cl)c3)Oc3cc4cc(c3O)Oc3ccc(cc3Cl)C[C@H]3NC(=O)[C@H](N)c5ccc(O)c(c5)Oc5cc(O)cc(c5)[C@H](NC3=O)C(=O)N[C@H]4C(=O)N[C@H]3C(=O)N[C@@H]2C(=O)N[C@H](C(=O)O)c2cc(O)cc(O)c2-c2cc3ccc2O)O[C@H](CO)[C@@H](O)[C@@H]1O` [Compound 14, r6,N-octyl-Glc Tei], the “inner (cytoplasmic) membrane permeabilization, PI” value in the data set with A. baumannii ATCC 19606 is recorded as “no activity”. The “cell wall morphology by TEM” value in the data set with MRSA ATCC 700787 [1] is recorded as “cell wall damage toward full cell lysis”. The same molecule showed an MIC against E. faecalis ATCC 29302 of 0.25 µg/mL (≈ 0.168 µM). Also, the “cytotoxicity to HEK293T cells” value in the data set with HEK293T cells is “did not exhibit any observable toxicity”. Besides, the “bacterial load reduced by” value with MRSA ATCC 700787 [2] worked out at 2 log CFUmL^−1.

Values taken from patent US11739122B2, “Glycopeptide antibiotic compounds, methods for producing the same, and uses thereof” (Academia Sinica, priority 2019, dated 2023).
